Data as given in ChEMBL document CHEMBL3108745, “Synthesis and structure-activity relationship of 3-hydroxypyridine-2-thione-based histone deacetylase inhibitors” (J Med Chem, 2013).
pIC50: −log10 of the molar value. Activity calls are given as the source filed them. No cut-off for these calls is given here.

Assays:
Histone deacetylase 8 = target: T1, Histone deacetylase 8 (Homo sapiens, UniProt Q9BY41); test: Inhibition of HDAC8 catalytic domain (unknown origin) expressed in Escherichia coli BL21 (DE3) using GRKacFGC as substrate after 60 mins by SAMDI mass spectrometric analysis
T1 sequence (Q9BY41 whole entry): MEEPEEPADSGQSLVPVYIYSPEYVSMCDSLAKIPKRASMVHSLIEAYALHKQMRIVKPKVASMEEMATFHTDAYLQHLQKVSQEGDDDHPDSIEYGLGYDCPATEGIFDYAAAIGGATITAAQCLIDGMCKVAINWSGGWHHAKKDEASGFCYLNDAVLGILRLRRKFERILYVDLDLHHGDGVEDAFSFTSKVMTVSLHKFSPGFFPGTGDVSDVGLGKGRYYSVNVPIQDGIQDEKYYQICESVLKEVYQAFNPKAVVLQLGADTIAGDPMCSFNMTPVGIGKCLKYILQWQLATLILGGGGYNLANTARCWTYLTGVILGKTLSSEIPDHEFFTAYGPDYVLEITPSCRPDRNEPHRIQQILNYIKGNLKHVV

[1] = target: T2, Protein deacetylase HDAC6 (Homo sapiens, UniProt Q9UBN7); test: Inhibition of HDAC6 (unknown origin) expressed in Escherichia coli BL21 (DE3) using GRKacYGC as substrate after 60 mins by SAMDI mass spectrometric analysis
T2 sequence (Q9UBN7 whole entry): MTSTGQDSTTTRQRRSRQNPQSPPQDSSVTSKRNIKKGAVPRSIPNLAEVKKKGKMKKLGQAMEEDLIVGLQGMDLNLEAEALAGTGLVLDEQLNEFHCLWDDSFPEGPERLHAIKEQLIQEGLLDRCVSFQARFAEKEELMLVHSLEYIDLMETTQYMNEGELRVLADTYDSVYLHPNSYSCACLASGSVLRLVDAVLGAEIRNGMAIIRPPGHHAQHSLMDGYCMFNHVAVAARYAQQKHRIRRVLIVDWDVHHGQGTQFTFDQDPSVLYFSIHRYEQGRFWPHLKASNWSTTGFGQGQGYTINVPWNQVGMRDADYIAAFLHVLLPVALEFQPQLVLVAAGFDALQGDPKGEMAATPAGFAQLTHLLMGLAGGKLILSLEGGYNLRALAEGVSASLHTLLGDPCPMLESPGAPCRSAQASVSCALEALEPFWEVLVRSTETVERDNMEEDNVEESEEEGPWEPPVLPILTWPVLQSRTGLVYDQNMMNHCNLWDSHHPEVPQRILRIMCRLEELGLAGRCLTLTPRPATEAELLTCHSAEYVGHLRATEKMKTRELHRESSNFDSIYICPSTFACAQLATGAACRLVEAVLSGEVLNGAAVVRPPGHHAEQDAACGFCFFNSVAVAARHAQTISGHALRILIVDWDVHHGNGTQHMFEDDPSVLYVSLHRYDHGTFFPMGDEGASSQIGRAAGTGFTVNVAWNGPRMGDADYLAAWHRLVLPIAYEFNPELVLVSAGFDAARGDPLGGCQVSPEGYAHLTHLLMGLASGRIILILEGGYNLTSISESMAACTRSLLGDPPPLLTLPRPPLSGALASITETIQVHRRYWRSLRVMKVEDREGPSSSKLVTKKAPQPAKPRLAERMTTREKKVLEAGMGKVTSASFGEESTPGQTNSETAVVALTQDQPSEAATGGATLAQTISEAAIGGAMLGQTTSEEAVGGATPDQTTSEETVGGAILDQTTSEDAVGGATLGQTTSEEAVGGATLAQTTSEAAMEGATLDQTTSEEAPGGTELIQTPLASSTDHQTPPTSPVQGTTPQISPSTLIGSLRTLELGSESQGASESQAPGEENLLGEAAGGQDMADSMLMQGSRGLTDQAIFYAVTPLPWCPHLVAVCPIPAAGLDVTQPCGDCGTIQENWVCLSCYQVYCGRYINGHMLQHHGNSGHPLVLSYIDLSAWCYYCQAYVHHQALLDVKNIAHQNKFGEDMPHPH

[2] = target: Histone deacetylase 1 (Homo sapiens) (UniProt Q13547); test: Inhibition of HDAC1 (unknown origin) expressed in Escherichia coli BL21 (DE3) using GRKacFGC as substrate at 10 uM after 60 mins by SAMDI mass spectrometric analysis relative to control
Histone deacetylase 1 (Homo sapiens), sequence (Q13547 whole entry, the tested form may be a part): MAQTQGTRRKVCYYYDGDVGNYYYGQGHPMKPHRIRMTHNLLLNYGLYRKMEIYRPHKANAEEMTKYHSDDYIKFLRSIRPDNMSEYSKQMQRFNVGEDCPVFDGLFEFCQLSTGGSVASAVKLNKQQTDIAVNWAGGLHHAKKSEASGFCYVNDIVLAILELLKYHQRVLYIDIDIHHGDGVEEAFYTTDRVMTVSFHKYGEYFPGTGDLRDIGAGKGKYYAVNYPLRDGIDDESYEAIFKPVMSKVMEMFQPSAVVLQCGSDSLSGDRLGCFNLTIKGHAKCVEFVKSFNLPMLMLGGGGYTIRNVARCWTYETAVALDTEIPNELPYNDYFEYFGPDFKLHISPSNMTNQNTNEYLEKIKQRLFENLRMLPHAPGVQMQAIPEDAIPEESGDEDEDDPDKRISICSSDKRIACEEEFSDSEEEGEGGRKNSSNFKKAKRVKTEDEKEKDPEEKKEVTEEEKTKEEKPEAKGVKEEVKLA

[3] = target: T3, Protein deacetylase HDAC6 (Homo sapiens) (UniProt Q9UBN7); test: Inhibition of HDAC6 (unknown origin) expressed in Escherichia coli BL21 (DE3) using GRKacYGC as substrate at 10 uM after 60 mins by SAMDI mass spectrometric analysis relative to control
T3 sequence (whole entry): T2 sequence (Q9UBN7 whole entry)

[4] = target: T3, Protein deacetylase HDAC6 (Homo sapiens); test: Inhibition of HDAC6 (unknown origin) expressed in Escherichia coli BL21 (DE3) using GRKacYGC as substrate at 10 nM to 1 mM after 60 mins by SAMDI mass spectrometric analysis
[5] = target: Histone deacetylase 1 (Homo sapiens) (UniProt Q13547); test: Inhibition of HDAC1 (unknown origin) expressed in Escherichia coli BL21 (DE3) using GRKacFGC as substrate at 10 nM to 1 mM after 60 mins by SAMDI mass spectrometric analysis
[6] = target: T4, Histone deacetylase 8 (Homo sapiens) (UniProt Q9BY41); test: Inhibition of HDAC8 catalytic domain (unknown origin) expressed in Escherichia coli BL21 (DE3) using GRKacFGC as substrate at 10 nM to 1 mM after 60 mins by SAMDI mass spectrometric analysis
T4 sequence (whole entry): T1 sequence (Q9BY41 whole entry)

Jurkat = test: cells; format: functional, cell-based; settings: Homo sapiens, 72 h
Description: Cytotoxicity against human Jurkat cells assessed as growth inhibition after 72 hrs by MTS assay

LNCaP = test: cells; settings: Homo sapiens, 72 h
Description: Cytotoxicity against androgen-dependent human LNCAP cells assessed as growth inhibition after 72 hrs by MTS assay

DU-145 = test: cells; format: functional, cell-based; settings: Homo sapiens, DU-145, 72 h
Description: Cytotoxicity against androgen-independent human DU145 cells assessed as growth inhibition after 72 hrs by MTS assay

[7] = Aqueous solubility of the compound […] at room temperature by UV-vis spectrophotometric analysis; format: physicochemical
[8] = Cytotoxicity against human Jurkat gamma1 cells assessed as growth inhibition after 72 hrs by MTS assay; format: functional, cell-based
Vero = test: Cytotoxicity against African green monkey Vero cells assessed as growth inhibition after 72 hrs by MTS assay; format: cell-based; settings: Chlorocebus sabaeus

| inhibition [2] | inhibition [4] | inhibition [5] | inhibition [6] | Structure (SMILES) | further results |
| --- | --- | --- | --- | --- | --- |
| < 20% | – | – | – | Cc1ccc(-c2cn(CCCCCn3cccc(O)c3=S)nn2)cc1 | pIC50 (Histone deacetylase 8): 5.60; pIC50 [1]: 6.09 |
| < 20% | – | – | – | N#Cc1ccc(-c2cn(CCCCCn3cccc(O)c3=S)nn2)cc1 | – |
| – | inactive | inactive | inactive | Cc1ccc(-c2cn(CCCCCn3cccc(O)c3=O)nn2)cc1 | – |
| < 20% | – | – | – | Cc1ccccc1-c1cn(CCCCCn2cccc(O)c2=S)nn1 | pIC50 (Jurkat): 5.29; pIC50 (Histone deacetylase 8): 5.62; pIC50 (LNCaP): 5.31; pIC50 (DU-145): 4.96; solubility [7]: soluble; pIC50 [1]: 6.20 |
| < 20% | – | – | – | Oc1cccn(CCCCCCCn2cc(-c3ccccc3)nn2)c1=S | pIC50 [8]: < 4.70; pIC50 (Jurkat): 5.04; pIC50 (Histone deacetylase 8): 5.86; pIC50 (LNCaP): 4.96; pIC50 (DU-145): 4.75; solubility [7]: soluble; pIC50 [1]: 6.02 |
| – | inactive | inactive | inactive | Cc1cccc(-c2cn(CCCCCn3cccc(O)c3=O)nn2)c1 | – |
| < 20% | – | – | – | Oc1cccn(CCCCCCn2cc(-c3ccccc3)nn2)c1=S | pIC50 (Histone deacetylase 8): 5.17; inhibition [3]: 22% |
| – | inactive | inactive | inactive | N#Cc1ccc(-c2cn(CCCCCn3cccc(O)c3=O)nn2)cc1C(F)(F)F | – |
| – | inactive | inactive | inactive | N#Cc1cccc(-c2cn(CCCCCn3cccc(O)c3=O)nn2)c1 | – |
| < 20% | – | – | – | CN(C)c1ccc(-c2cn(CCCCCn3cccc(O)c3=S)nn2)cc1 | – |
| < 20% | – | – | – | N#Cc1ccc(-c2cn(CCCCCn3cccc(O)c3=S)nn2)cc1C(F)(F)F | – |
| < 20% | – | – | – | Cc1cccc(-c2cn(CCCCCn3cccc(O)c3=S)nn2)c1 | pIC50 (Histone deacetylase 8): 5.78; pIC50 [1]: 5.96 |
| – | inactive | inactive | inactive | N#Cc1ccc(-c2cn(CCCCCn3cccc(O)c3=O)nn2)cc1 | – |
| < 20% | – | – | – | Oc1cccn(CCCCn2cc(-c3ccccc3)nn2)c1=S | pIC50 (Histone deacetylase 8): 5.48; pIC50 [1]: 5.96 |

Continued, compound first:

| Structure (SMILES) | inhibition [2] | inhibition [4] | inhibition [5] | inhibition [6] | further results |
| --- | --- | --- | --- | --- | --- |
| Oc1cccn(Cc2cn(-c3ccccc3)nn2)c1=S | < 20% | – | – | – | inhibition [3]: 41% |
| CN(C)c1ccc(-c2cn(CCCCCn3cccc(O)c3=O)nn2)cc1 | – | inactive | inactive | inactive | – |
| O=c1c(O)cccn1CCCCCCn1cc(-c2ccccc2)nn1 | – | inactive | inactive | inactive | – |
| Cc1ccccc1-c1cn(CCCCCn2cccc(O)c2=O)nn1 | – | inactive | inactive | inactive | – |
| CN1CCc2c(c3ccccc3n2Cc2ccc(C(=O)NO)cc2)C1 [TUBASTATIN A] | – | – | – | – | pIC50 (Vero): < 4.70; pIC50 (Jurkat): 5.47; pIC50 (LNCaP): 4.96 |
| O=c1c(O)cccn1CCCn1cc(-c2ccccc2)nn1 | – | inactive | inactive | inactive | – |
| O=c1c(O)cccn1CCn1cc(-c2ccccc2)nn1 | – | inactive | inactive | inactive | – |
| O=c1c(O)cccn1CCCCCCCn1cc(-c2ccccc2)nn1 | – | inactive | inactive | inactive | – |
| Oc1cccn(CCCn2cc(-c3ccccc3)nn2)c1=S | < 20% | – | – | – | pIC50 [1]: 5.44 |
| Oc1cccn(CCn2cc(-c3ccccc3)nn2)c1=S | < 20% | – | – | – | inhibition [3]: 14% |
| O=c1c(O)cccn1CCCCn1cc(-c2ccccc2)nn1 | – | inactive | inactive | inactive | – |
| O=c1c(O)cccn1CCCCCn1cc(-c2ccccc2)nn1 | – | inactive | inactive | inactive | – |
